In patent publication US20020137929A1, “1 - (3-heterocyclylphenyl) isothiourea, -isourea, -guanidine and -amidine herbicidal agents” (Intellectual Property Department, BASF Aktiengesellschaft, priority 1998, published 2002):

Assays:
ABUTH (Velvetleaf) [1] = assay: Postemergence herbicidal evaluation; format: in vivo, Abutilon theophrasti; settings: postemergence
Outline: (§1)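 Each compound, dispersed in an acetone/water mix (50/50) carrying 0.5% TWEEN 20, is nozzle-sprayed at 40 psi on approximately two-week-old seedlings at about 0.0156–0.500 kg/ha. Plants are assessed 4–5 weeks afterward on a 0–9 scale relative to control; duplicate tests are averaged.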

[2] = system: IPOHE (Morningglory, Ivyleaf); assay: Postemergence herbicidal evaluation; format: in vivo, Ipomoea hederacea; settings: postemergence
Outline: as §1

SETVI (Foxtail, Green) = assay: Postemergence herbicidal evaluation; format: in vivo, Setaria viridis; settings: postemergence
Outline: as §1

[3] = system: GLXMAW (Soybean, Williams); assay: Postemergence herbicidal evaluation; format: in vivo, Glycine max, (L.) Merr. cv Williams; settings: postemergence
Outline: as §1

ZEAMX (Corn, Field) = assay: Postemergence herbicidal evaluation; format: in vivo, Zea mays; settings: postemergence
Outline: as §1

ABUTH (Velvetleaf) [4] = assay: Preemergence herbicidal evaluation; format: in vivo, Abutilon theophrasti; settings: rated 4-5 weeks after treatment
Outline: (§2)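 Herbicidal effect scored visually, 0-9, at 4 to 5 weeks against a control; compound applied preemergence by aqueous acetone spray to seeded soil at about 0.0156 to 0.500 kg/ha.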

AMBEL (Ragweed, Common) = assay: Preemergence herbicidal evaluation; format: in vivo, Ambrosia artemisifolia; settings: rated 4-5 weeks after treatment
Outline: as §2

CASOB (Sicklepod) = assay: Preemergence herbicidal evaluation; format: in vivo, Cassia obtusifolia; settings: rated 4-5 weeks after treatment
Outline: as §2

[5] = system: IPOHE (Morningglory, Ivyleaf); assay: Preemergence herbicidal evaluation; format: in vivo, Ipomoea hederacea; settings: rated 4-5 weeks after treatment
Outline: as §2

ECHCG (Barnyardgrass) = assay: Preemergence herbicidal evaluation; format: in vivo, Echinochloa crus-galli; settings: rated 4-5 weeks after treatment
Outline: as §2

[6] = system: ECHORC (Watergrass (Calif.)); assay: Preemergence weed control under flooded paddy conditions; format: in vivo, Echinochloa oryzoides; settings: rated 3-4 weeks after treatment
Outline: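 Herbicidal effect is scored visually on a 0-9 scale against an untreated control, three to four weeks after compounds are pipetted into the flood water (1.5 to 3 cm deep) over seeds planted in silt loam at 0.5 cm depth. Rates: about 0.0313 to 0.500 kg/ha.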

CYPSE (Flatsedge) = assay: as above; format: in vivo, Cyperus serotinus; settings: rated 3-4 weeks after treatment
Outline: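 Values are visual 0-9 scores against a control for a preemergence application into paddy flood water at about 0.0313 to 0.500 kg/ha. Greenhouse duration was three to four weeks.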

CN1C(=O)C(CC(=O)NO)SC1=Nc1cc(-n2c(=O)cc(C(F)(F)F)n(C)c2=O)c(F)cc1Cl (stereo not drawn) [Compound 162, 2-{{2-Chloro-5-[3,6-dihydro-3-methyl-2,6-dioxo-4-(trifluoromethyl)-1(2H)-pyrimidinyl]-4-fluorophenyl}imino}-3-methyl-4-oxo-5-thiazolidineacetohydroxamic acid]
5.5: herbicidal rating ZEAMX (ZEAMX (Corn, Field); rate 0.0625 kg/ha)
1.0: Preemergence herbicidal rating ECHCG (ECHCG (Barnyardgrass); 0.0156 kg/ha)
3.0: herbicidal rating SETVI (SETVI (Foxtail, Green); rate 0.0313 kg/ha) | Preemergence herbicidal rating AMBEL (AMBEL (Ragweed, Common); 0.0313 kg/ha)
0.0: herbicidal rating SETVI (SETVI (Foxtail, Green); rate 0.0156 kg/ha) | Preemergence herbicidal rating AMBEL (AMBEL (Ragweed, Common); 0.0156 kg/ha) | Preemergence herbicidal rating CASOB (CASOB (Sicklepod); 0.0156 kg/ha) | Preemergence herbicidal rating CASOB (CASOB (Sicklepod); 0.0625 kg/ha) | Preemergence herbicidal rating CASOB (CASOB (Sicklepod); 0.1250 kg/ha) | Preemergence herbicidal rating IPOHE ([5]; 0.0156 kg/ha) | Preemergence herbicidal rating IPOHE ([5]; 0.0313 kg/ha)
4.0: herbicidal rating SETVI (SETVI (Foxtail, Green); rate 0.0625 kg/ha) | Preemergence herbicidal rating CASOB (CASOB (Sicklepod); 0.2500 kg/ha) | Preemergence herbicidal rating IPOHE ([5]; 0.0625 kg/ha) | Preemergence herbicidal rating ECHCG (ECHCG (Barnyardgrass); 0.0313 kg/ha)
6.0: herbicidal rating GLXMAW ([3]; rate 0.0156 kg/ha) | herbicidal effect rating, ECHORC ([6]; 0.0313 kg/ha)
6.5: herbicidal rating GLXMAW ([3]; rate 0.0313 kg/ha)
8.5: herbicidal rating GLXMAW ([3]; rate 0.0625 kg/ha)
5.0: herbicidal rating ZEAMX (ZEAMX (Corn, Field); rate 0.0313 kg/ha) | Preemergence herbicidal rating AMBEL (AMBEL (Ragweed, Common); 0.0625 kg/ha)
7.0: herbicidal effect rating, ECHORC ([6]; 0.0625 kg/ha)
4.5: herbicidal rating ZEAMX (ZEAMX (Corn, Field); rate 0.0156 kg/ha)
8.0: Preemergence herbicidal rating ECHCG (ECHCG (Barnyardgrass); 0.0625 kg/ha) | herbicidal effect rating, ECHORC ([6]; 0.1250 kg/ha) | herbicidal effect rating, ECHORC ([6]; 0.2500 kg/ha)
9.0: herbicidal rating ABUTH (ABUTH (Velvetleaf) [1]; rate 0.0156 kg/ha) | herbicidal rating ABUTH (ABUTH (Velvetleaf) [1]; rate 0.0313 kg/ha) | herbicidal rating ABUTH (ABUTH (Velvetleaf) [1]; rate 0.0625 kg/ha) | herbicidal rating IPOHE ([2]; rate 0.0156 kg/ha) | herbicidal rating IPOHE ([2]; rate 0.0313 kg/ha) | herbicidal rating IPOHE ([2]; rate 0.0625 kg/ha) | Preemergence herbicidal rating ABUTH (ABUTH (Velvetleaf) [4]; 0.0156 kg/ha) | Preemergence herbicidal rating ABUTH (ABUTH (Velvetleaf) [4]; 0.0313 kg/ha) | Preemergence herbicidal rating ABUTH (ABUTH (Velvetleaf) [4]; 0.0625 kg/ha) | Preemergence herbicidal rating ABUTH (ABUTH (Velvetleaf) [4]; 0.1250 kg/ha) | Preemergence herbicidal rating ABUTH (ABUTH (Velvetleaf) [4]; 0.2500 kg/ha) | Preemergence herbicidal rating AMBEL (AMBEL (Ragweed, Common); 0.1250 kg/ha) | Preemergence herbicidal rating AMBEL (AMBEL (Ragweed, Common); 0.2500 kg/ha) | Preemergence herbicidal rating IPOHE ([5]; 0.1250 kg/ha) | Preemergence herbicidal rating IPOHE ([5]; 0.2500 kg/ha) | Preemergence herbicidal rating ECHCG (ECHCG (Barnyardgrass); 0.1250 kg/ha) | Preemergence herbicidal rating ECHCG (ECHCG (Barnyardgrass); 0.2500 kg/ha) | herbicidal effect rating, CYPSE (CYPSE (Flatsedge); 0.1250 kg/ha) | herbicidal effect rating, CYPSE (CYPSE (Flatsedge); 0.2500 kg/ha)
